Measurements reported in patent publication US7291353B2, “Anti-peptic ulcer activity of an extract of a flower of Woodfordia fruticosa” (Council of Scientific and Industrial Research, priority 2002, dated 2007).

Experiments:
[1] = system: Helicobacter pylori avirulent strain 80A; experiment: Anti H. pylori Activity, Disc Diffusion Sensitivity Test, strain 80A; assay type: cell-based; settings: 0.5 mg/disc; one range stated for both the strains (80A)
[2] = system: Helicobacter pylori virulent strain 121 A; experiment: Anti H. pylori Activity, Disc Diffusion Sensitivity Test, strain 121A; assay type: cell-based; settings: 0.5 mg/disc; one range stated for both the strains (121A)
[3] = system: frog gastric mucosa (histamine stimulated acid secretion); experiment: Frog Chamber Study: histamine-stimulated acid secretion of chambered frog gastric mucosa; set-up: species or system Rana hexadactyla; key to Comment (qualitative rank score): the rank score for both cimetidine and omeprazole (considered as 100%) were given as +8; settings: for concentration enough to block almost complete acid secretion: 0.1-0.2 mM histamine; for Comment (qualitative rank score): cimetidine and omeprazole (100%) = +8
Procedure: Frog Chamber Study: The in organ experiments using the whole frog stomach to assess the anti-HCl secreting potential of extracts and their fractions were carried out employing Frog Chamber Model (for detail about the logic of the experiment and the information to be generated.
Frog Chamber Study: The study is based on the principle of ‘No Acid No Ulcer’. […] In this in vitro study, frog stomach is mounted in a plastic tube (Using Chamber Study). Employing histamine as the ulcerogen (final common mediator of all the physiological secretagogues), the rate and extent of proton secretion are quantitatively assessed as a function of the amount of herbal preparation and duration of treatment.
The experimental approach, as standardized through a series of experiments with more than 200 plant extracts, has been to measure, over time, (i) basal acid secretion, (ii) histamine-stimulated acid secretion, (iii) extract-induced (two doses) acid secretion, followed by (iv) extract-withdrawn acid secretion. For a particular stomach, after the basal secretion level is known, histamine is inserted from the nutrient side to see maximum acid secreting potential. Thereafter, an extract is inserted (first lower dose and then higher dose) from the nutrient side in presence of continuous supply of histamine to mimic ulcerative situation, followed by withdrawal of the extract by washing the nutrient side with histamine-containing nutrient medium. This latter phase is expected to generate information regarding the efficacy of the extract, upon its withdrawal, towards inhibiting the continuously existing acid secreting phase.
Experiments are carried out with in vitro preparations of gastric mucosa mounted over one end of a plastic tube (mounted area is 1.76 cm^2) with the mucosal surface facing out. The mounted tissue is placed vertically inside a 25-ml container. The nutrient solution is regular Frog Ringer solution and the luminal side (secretory side) is bathed in an unbuffered NaCl solution. The volumes of nutrient and mucosal solutions are adjusted in a way so as to be able to maintain constant hydrostatic pressure in the chamber throughout the duration of the experiment. Both solutions are slowly and continuously bubbled with O2 during the entire duration of the experiment. The mucosal solution is slowly and continuously stirred with a magnetic stirrer and collected at 15-min intervals in thoroughly washed clean vials.

Gastric H^+, K^+-ATPase = biological target: T1, Gastric H^+, K^+-ATPase (Sus scrofa, UniProt P19156); experiment: Anti Gastric Proton Pump Activity Study; assay type: biochemical, pig; settings: dose range of 0.3-3.0 mg/assay
T1 construct: These membranes are primarily enriched in tubulovescicular and apical membranes; from tissue; host or cells: pig stomach (gastric mucosa), tubulovesicular and apical membranes
From the text: The applicant have selected one whole animal model—Cold Restraint Stress Ulcer in Rat (in vivo) to assess ulcer protection capacity of the extracts [Senay E. C. and Levine R. J., Proc Soc. Exp. Biol. Med. 124, 1221 (1967)], one isolated stomach model—Chambered Frog Gastric Mucosa (in organ) to assess anti HCl secretion potential [Durbin R. P. and Kircher A. B., Biochem. Biophys. Acta, 321, 553 (1973); Ray, T. K. and Tague L. R., Biochem. Pharmacol. 29, 2755 (1980); Ray et al., Proc. Natl. Acad. Sci. (USA) 79, 1448 (1982)], gastric proton pump inhibition model using pig gastric H^+, K^+-ATPase-rich apical and tubulovesicular membranes (in vitro) to examine enzyme inhibition [Bandopadhyay, S. Das, P. K., Wright, M. V., Nandi, J., Bhattacharyya, D. and Ray, T. K., J. Biol. Chem. 262, 5664 (1987)], and anti Helicobacter pylori activity assessment by Disc Diffusion Sensitivity Assay [Glupczynski, Y. In: Helicobacter pylori: techniques for clinical diagnosis & basic research, (Eds. Adrian Lee & Francis Megraud), W. B. Saunders Company Ltd., 1996, pp. 17-32].
3. […] K^+-stimulated activity, referred to as H^+, K^+-ATPase, was calculated as the difference between the activities obtained in presence of Mg^2+ plus K^+ and the basal activity (Mg^2+-ATPase) in presence of MG^2+ alone.

T1 sequence (P19156 2-1034 limits assumed): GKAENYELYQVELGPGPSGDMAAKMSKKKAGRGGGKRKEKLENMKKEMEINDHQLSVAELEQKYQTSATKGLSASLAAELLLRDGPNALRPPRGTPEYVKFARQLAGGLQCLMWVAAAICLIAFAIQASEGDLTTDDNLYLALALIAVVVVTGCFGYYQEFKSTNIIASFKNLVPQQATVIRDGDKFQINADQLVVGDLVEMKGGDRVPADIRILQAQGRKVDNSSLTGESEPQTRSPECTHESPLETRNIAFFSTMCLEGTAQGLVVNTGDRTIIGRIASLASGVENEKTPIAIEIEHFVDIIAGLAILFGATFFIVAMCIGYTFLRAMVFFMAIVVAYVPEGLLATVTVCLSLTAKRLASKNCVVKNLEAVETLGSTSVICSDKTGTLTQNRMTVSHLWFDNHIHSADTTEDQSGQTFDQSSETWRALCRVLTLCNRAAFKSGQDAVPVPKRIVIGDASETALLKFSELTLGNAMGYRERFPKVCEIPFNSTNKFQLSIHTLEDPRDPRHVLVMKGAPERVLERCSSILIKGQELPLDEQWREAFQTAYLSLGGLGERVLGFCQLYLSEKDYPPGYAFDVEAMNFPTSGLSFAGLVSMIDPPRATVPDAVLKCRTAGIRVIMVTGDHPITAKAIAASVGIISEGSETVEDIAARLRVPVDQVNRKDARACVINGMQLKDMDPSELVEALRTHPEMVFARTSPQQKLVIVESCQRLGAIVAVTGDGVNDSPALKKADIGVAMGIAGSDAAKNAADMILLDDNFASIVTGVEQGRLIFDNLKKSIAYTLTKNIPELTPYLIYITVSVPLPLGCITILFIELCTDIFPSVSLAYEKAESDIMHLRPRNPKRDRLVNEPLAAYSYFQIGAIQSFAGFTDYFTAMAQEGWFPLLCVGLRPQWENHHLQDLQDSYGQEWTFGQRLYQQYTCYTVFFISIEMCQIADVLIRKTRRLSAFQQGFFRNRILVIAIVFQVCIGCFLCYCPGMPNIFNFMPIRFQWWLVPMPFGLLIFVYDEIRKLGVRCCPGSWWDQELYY
T1 sequence (P18434 whole entry partner): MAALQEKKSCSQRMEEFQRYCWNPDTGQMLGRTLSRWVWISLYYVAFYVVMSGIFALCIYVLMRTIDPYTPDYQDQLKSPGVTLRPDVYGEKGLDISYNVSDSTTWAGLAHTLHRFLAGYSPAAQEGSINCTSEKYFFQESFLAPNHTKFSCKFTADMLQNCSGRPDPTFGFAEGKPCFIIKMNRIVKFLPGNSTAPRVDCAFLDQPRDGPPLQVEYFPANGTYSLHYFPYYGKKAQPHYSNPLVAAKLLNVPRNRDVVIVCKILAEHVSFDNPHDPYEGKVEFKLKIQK

% inhibition of H^+, K^+-ATPase (Gastric H^+, K^+-ATPase) | Compound | inhibition zone diameter [1] | inhibition zone diameter [2] | concentration enough to block almost complete acid secretion ([3]; added from nutrient side) [mM] | Comment (qualitative rank score) [3] | concentration enough to block almost complete acid secretion ([3]; added from secretory side) [mM]
– | CC[C@H]1OC(=O)[C@H](C)[C@@H](O[C@H]2C[C@@](C)(OC)[C@@H](O)[C@H](C)O2)[C@H](C)[C@@H](O[C@@H]2O[C@H](C)C[C@H](N(C)C)[C@H]2O)[C@](C)(OC)C[C@@H](C)C(=O)[C@H](C)[C@@H](O)[C@]1(C)O [clarithromycin] | 2.3-2.7 cm | 2.3-2.7 cm | – | – | –
– | CN/C(=N/CCSCc1nc[nH]c1C)NC#N [cimetidine] | – | – | 0.1 to 0.2 | +8 | –
50-100% | COc1ccc2[nH]c([S+]([O-])Cc3ncc(C)c(OC)c3C)nc2c1 (stereo not shown) [omeprazole] | – | – | – | +8 | 1 to 10
